Results published in patent publication US10888720B2, “Gentiopicroside free gentiana extract” (DSM IP ASSETS B.V., priority 2015, dated 2021).

Legend:
[1] = tested on: Normal human fibroblasts (NHF); experiment: Hyaluronan production (Hyaluronan Assay Kit); type: cell-based; details: TGFbeta1 10 ng/ml, positive control
Method: Gentiana extract (Gentiana acaulis/Gentiana septemfida, 25/75 m/m) was used. Normal human fibroblasts (NHF) P2+1 were seeded at 5000 cell/well in 96 well cell culture plates (Nunclon) in MEM 10% FCS (Pan Biotech). After three days of growth, Gentiana extract solution was added in medium without FCS and incubated the cells for an additional three days. Secreted hyaluronan in the growth medium was measured using a Hyaluronan Assay Kit (K-1200, Echelon, Salt Lake City, Utah).

[2] = tested on: DNA; details: K. Mustafayeva et al., J. Nat. Prod. 2010, 73, 99-103; cited from earlier work

| Compound | stimulation of hyaluronan production compared to untreated cells [1] [%] | genotoxic effects reported [2] |
| --- | --- | --- |
| TGFbeta1: TGFbeta1 (10 ng/ml), served as positive control for hyaluronan production | 45.6±1.1 | – |
| C=C[C@@H]1C2=CCOC(=O)C2=CO[C@H]1O[C@@H]1O[C@H](CO)[C@@H](O)[C@H](O)[C@H]1O [gentiopicroside] | – | DNA damaging, mutagenic, and clastogenic effects |
